Experiments:
full-length human GHR = target: T1, full-length human GHR (Homo sapiens, UniProt P10912); assay: Immunofluorescence of subcellular distribution and internalization of growth hormone receptor; type: cell-based; settings: WRL-68 cells transfected with human GHR; immunofluorescence using Mab263; 10-100 nM GH or 2 μM BVT.3693
T1 construct: plasmid DNA encoding the full-length human GHR; expressed in transfected cells; host or cells: WRL-68 cells
T1 sequence (P10912 19-638): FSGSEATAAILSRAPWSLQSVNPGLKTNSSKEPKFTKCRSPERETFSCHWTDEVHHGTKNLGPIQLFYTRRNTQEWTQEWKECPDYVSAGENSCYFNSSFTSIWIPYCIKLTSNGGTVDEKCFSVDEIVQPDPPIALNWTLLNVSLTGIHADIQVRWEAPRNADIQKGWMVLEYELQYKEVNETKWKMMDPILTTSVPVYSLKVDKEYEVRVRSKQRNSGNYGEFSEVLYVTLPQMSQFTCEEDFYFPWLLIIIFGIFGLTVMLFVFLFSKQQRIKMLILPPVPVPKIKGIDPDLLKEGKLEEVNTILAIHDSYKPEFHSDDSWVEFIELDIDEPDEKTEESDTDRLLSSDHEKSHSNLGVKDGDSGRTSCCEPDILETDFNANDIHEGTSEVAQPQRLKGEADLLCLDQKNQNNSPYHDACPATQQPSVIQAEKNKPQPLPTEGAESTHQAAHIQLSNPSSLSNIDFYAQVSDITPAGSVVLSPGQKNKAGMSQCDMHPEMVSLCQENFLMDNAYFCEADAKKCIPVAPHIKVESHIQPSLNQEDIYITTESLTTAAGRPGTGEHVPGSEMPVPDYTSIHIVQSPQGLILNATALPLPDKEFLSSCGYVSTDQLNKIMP
Protocol: WRL-68 cells were cultured in EMEM medium with NaHCO3 (Statens Veterinärmedicinska Anstalt, Uppsala, Sweden), supplemented with 10% fetal bovine serum (FBS), 2% L-Glutamine, 1% Pyruvate, and non-essential acids (NEA), all from GIBCO, at 37° C. in 5% CO2.
Transfection: Cells were transfected with plasmid DNA encoding the full-length human GHR (pMB 1288, 2 μg/μl) using DOTAP Liposomal Transfection Reagent (Roche), according to the manufacturers instructions. WRL-68 cells in T75 flasks were transfected with 10 μg DNA for each flask. 5 μl (10 μg) DNA was diluted with 250 μl OPTIMEM1 medium (GIBCO), and mixed with 75 μl DOTAP reagent diluted in 175 μl OPTIMEM1 medium. The mixture was incubated for 10 minutes and then mixed with 10 ml OPTIMEM1 medium. Cells were washed once and then incubated for 4 hours with the DNA/DOTAP transfection mix. The transfection reagents were removed and fresh culture medium was added. Cells were re-seeded into new culture dishes the following day.
Stimulation: 3×10^4 cells were seeded on chamber slides in eight-well dishes and grown for two days. […] After treatment, the cells were rinsed twice with ice-cold PBS. Fixation was performed with 4% paraformaldehyde for 20 minutes.
Staining with rabbit antiserum: The chamber slides were washed twice by immersion of the slides in a container with 0.05% TBS-Tween. […]

[1] = target: T2, membrane bound GHR on a human osteosarcoma cell line (Homo sapiens, UniProt P10912); assay: DELFIA assay for determination of receptor on cell surface; type: cell-based; settings: stimulated for 1.5 hours with increasing concentrations, Eu-labeled anti GH-rec antibody BB117, FIG. 2
T2 construct: endogenous in cells
T2 sequence (P10912 19-638): T1 sequence (P10912 19-638)
Protocol: The following method was used to quantify the number of GH receptors on the cell surface after stimulation with different compounds.
On day 1, WRL-68 cells were seeded at a density of 15,000 cells per well and incubated under standard cell culture conditions.
On day 3, cells were washed with serum-free medium and incubated 1 hour prior to stimulation with a dose-response of BVT.3693. The cells were then washed with ice-cold PBS (Dulbecco PBS-A) and fixated with 4% paraformaldehyde on ice for 20 minutes. Thereafter the plates were washed with PBS and stored in a refrigerator until used. […]
On day 4, the plates were washed with PBS using a DELFIA plate washer. […] The amount of Europium fluorescence was determined by reading in a Victor analysis instrument.
To correlate the amount of Europium fluorescence measured (which fluorescence is proportional to the number of GH receptors present on the cell surface) to the number of cells attached to the bottom of the well after all the washing steps, we developed an internal standard. […] Instead, we developed a method to quantify the amount of DNA in the wells as an internal standard. […]
10,000 cells per well were seeded the day before stimulation. […] Receptor quantification was performed using an Eu-labeled anti GH-rec antibody BB117, as described above (simplified protocol).

SMILES: Cc1ccc(S(N)(=O)=O)cc1NC(=O)c1ccc(Br)o1 [BVT.3693, N-[5-(aminosulfonyl)-2-methylphenyl]-5-bromo-2-furamide]
- subcellular distribution of GHR after stimulation (full-length human GHR): intracellular staining, with both a nuclear localisation and a cytoplasmic localisation of the receptor
- amount of GHR on the surface of the cells [1]: dose dependent reduction
